pIC50: −log10 of the molar value.
What follows are compounds tested against T1, hMAGL (Homo sapiens, UniProt Q99685) (assay: 2-AG assay: MAGL inhibition, hydrolysis of 2-arachidonoylglycerol to arachidonic acid followed by mass spectrometry).
T1 sequence (Q99685 1-303): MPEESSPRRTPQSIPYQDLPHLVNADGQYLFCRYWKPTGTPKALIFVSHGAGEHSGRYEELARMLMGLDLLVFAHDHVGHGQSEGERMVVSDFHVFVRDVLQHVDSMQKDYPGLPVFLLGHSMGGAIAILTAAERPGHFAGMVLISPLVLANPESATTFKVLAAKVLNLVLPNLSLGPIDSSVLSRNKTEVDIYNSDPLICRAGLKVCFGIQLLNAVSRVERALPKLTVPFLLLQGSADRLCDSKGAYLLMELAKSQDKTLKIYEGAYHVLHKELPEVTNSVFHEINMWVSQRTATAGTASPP
Format: biochemical
Experimental: Compounds of formula (I) were profiled for MAGL inhibitory activity by determining the enzymatic activity by following the hydrolysis of the natural substrate 2-arachidonoylglycerol (2-AG) resulting in arachidonic acid, which can be followed by mass spectrometry. This assay is hereinafter abbreviated “2-AG assay”. The 2-AG assay was carried out in 384 well polypropylene assay plates. […] Compound dilutions were added to MAGL protein in assay buffer (50 mM TRIS, 1 mM EDTA, 0.01% (v/v) Tween-20, 2.5% (v/v) DMSO). After shaking, the plate was incubated for 15 min at RT. To start the reaction, 2-arachidonoylglycerol in assay buffer was added. The final concentrations in the assay was […] for MAGL protein and 8 μM 2-arachidonoylglyerol. After shaking and 30 min incubation at RT, the reaction was quenched by the addition of two assay volumes of acetonitrile containing 4 μM of d8-arachidonic acid. The amount of arachidonic acid formed was traced by an online SPE system (Agilent Rapidfire) coupled to a triple quadrupole mass spectrometer. A C18 SPE cartridge (Agilent G9205A) was used in an acetonitrile/water liquid setup. […] The activity of the compounds was calculated based on the ratio of intensities [arachidonic acid/d8-arachidonic acid].
Work on `Cn1ncc(CC2CC3(C2)CN(C(=O)N2CC4(CC(n5cnc(C6(O)CC6)n5)C4)C2)C3)c1C(F)(F)F` [Example 1, [6-[3-(1-hydroxycyclopropyl)-1,2,4-triazol-1-yl]-2-azaspiro[3.3]heptan-2-yl]-[6-[[1-methyl-5-(trifluoromethyl)pyrazol-4-yl]methyl]-2-azaspiro[3.3]heptan-2-yl]methanone] yielded a pIC50 of 9.33.
`Cn1nc(CC2CC3(C2)CN(C(=O)N2CC4(CC(n5cnc(C6(O)CC6)n5)C4)C2)C3)cc1C(F)(F)F` [Example 2, [6-[3-(1-hydroxycyclopropyl)-1,2,4-triazol-1-yl]-2-azaspiro[3.3]heptan-2-yl]-[6-[[1-methyl-5-(trifluoromethyl)pyrazol-3-yl]methyl]-2-azaspiro[3.3]heptan-2-yl]methanone] was tested, and the pIC50 was 9.21.
In the case of `Cn1ncc(C(F)(F)F)c1CC1CC2(C1)CN(C(=O)N1CC3(CC(n4cnc(C5(O)CC5)n4)C3)C1)C2` [Example 3], the pIC50 was 8.66.
Work on `O=C(N1CC2(CC(Cn3nccc3C(F)(F)F)C2)C1)N1CC2(CC(n3cnc(C4(O)CC4)n3)C2)C1` [Example 4] yielded a pIC50 of 8.76.
`O=C(N1CC2(CC(Cn3nccc3C(F)(F)F)C2)C1)N1CC2(CC(c3cc(C4(O)CC4)n[nH]3)C2)C1` [Example 5] showed a pIC50 of 8.77.
For `Cn1cc(CC2CC3(C2)CN(C(=O)N2CC4(CC(n5cnc(C6(O)CC6)n5)C4)C2)C3)c(C(F)(F)F)n1` [Example 6, [6-[3-(1-hydroxycyclopropyl)-1,2,4-triazol-1-yl]-2-azaspiro[3.3]heptan-2-yl]-[6-[[1-methyl-3-(trifluoromethyl)pyrazol-4-yl]methyl]-2-azaspiro[3.3]heptan-2-yl]methanone], the pIC50 was 8.31.
With `O=C(N1CC2(CC(Cc3nnc(C4(C(F)(F)F)CC4)o3)C2)C1)N1CC2(CC(n3cnc(C(F)(F)F)n3)C2)C1` [Example 7] the pIC50 was 8.60.
For `O=C(N1CC2(CC(Cc3nnc(C4(C(F)(F)F)CC4)o3)C2)C1)N1CC2(CC(n3cnc(C4CC4)n3)C2)C1` [Example 8], the pIC50 was 9.15.
`O=C(N1CC2(CC(Cc3n[nH]c(C(F)(F)F)n3)C2)C1)N1CC2(CC(n3cnc(C(F)(F)F)n3)C2)C1` [Example 9, [6-[3-(trifluoromethyl)-1,2,4-triazol-1-yl]-2-azaspiro[3.3]heptan-2-yl]-[6-[[5-(trifluoromethyl)-1H-1,2,4-triazol-3-yl]methyl]-2-azaspiro[3.3]heptan-2-yl]methanone] showed a pIC50 of 8.15.
Work on `O=C(N1CC2(CC(Cc3n[nH]c(C(F)(F)F)n3)C2)C1)N1CC2(CC(n3cnc(C4CC4)n3)C2)C1` [Example 10] yielded a pIC50 of 8.71.
For `O=C(N1CC2(CC(Cc3n[nH]c(C(F)(F)F)n3)C2)C1)N1CC2(CC(n3cnc(C4(O)CC4)n3)C2)C1` [Example 11, [6-[3-(1-hydroxycyclopropyl)-1,2,4-triazol-1-yl]-2-azaspiro[3.3]heptan-2-yl]-[6-[[5-(trifluoromethyl)-1H-1,2,4-triazol-3-yl]methyl]-2-azaspiro[3.3]heptan-2-yl]methanone], the pIC50 was 7.69.
With `O=C(N1CC2(CC(Cn3cc(C(F)(F)F)cn3)C2)C1)N1CC2(CC(n3cnc(C4(O)CC4)n3)C2)C1` [Example 12] the pIC50 was 8.06.
Work on `O=C(N1CC2(CC(Oc3nc(C(F)(F)F)cs3)C2)C1)N1CC2(CC(n3cnc(C4(O)CC4)n3)C2)C1` [Example 13, [6-[3-(1-hydroxycyclopropyl)-1,2,4-triazol-1-yl]-2-azaspiro[3.3]heptan-2-yl]-[6-[4-(trifluoromethyl)thiazol-2-yl]oxy-2-azaspiro[3.3]heptan-2-yl]methanone] yielded a pIC50 of 7.83.
With `O=C(N1CC2(CC(Cc3cnn(C(F)(F)F)c3)C2)C1)N1CC2(CC(n3cnc(C4(O)CC4)n3)C2)C1` [Example 14] the pIC50 was 8.20.
Work on `O=C(N1CC2(CC(Cc3nc(C(F)(F)F)ns3)C2)C1)N1CC2(CC(n3cnc(C(F)(F)F)n3)C2)C1` [Example 15, [6-[[3-(trifluoromethyl)-1,2,4-thiadiazol-5-yl]methyl]-2-azaspiro[3.3]heptan-2-yl]-[6-[3-(trifluoromethyl)-1,2,4-triazol-1-yl]-2-azaspiro[3.3]heptan-2-yl]methanone] yielded a pIC50 of 8.65.
Work on `O=C(N1CC2(CC(Cc3nc(C(F)(F)F)ns3)C2)C1)N1CC2(CC(n3cnc(C4CC4)n3)C2)C1` [Example 16] yielded a pIC50 of 9.74.
`O=C(N1CC2(CC(Cc3nc(C(F)(F)F)ns3)C2)C1)N1CC2(CC(n3cnc(C4(O)CC4)n3)C2)C1` [Example 17, [6-[3-(1-hydroxycyclopropyl)-1,2,4-triazol-1-yl]-2-azaspiro[3.3]heptan-2-yl]-[6-[[3-(trifluoromethyl)-1,2,4-thiadiazol-5-yl]methyl]-2-azaspiro[3.3]heptan-2-yl]methanone] was tested, and the pIC50 was 7.76.
`O=C(N1CC2(CCN(Cc3cc(C(F)(F)F)no3)CC2)C1)N1CC2(CC(n3cnc(C4(O)CC4)n3)C2)C1` [Example 18, [6-[3-(1-hydroxycyclopropyl)-1,2,4-triazol-1-yl]-2-azaspiro[3.3]heptan-2-yl]-[7-[[3-(trifluoromethyl)isoxazol-5-yl]methyl]-2,7-diazaspiro[3.5]nonan-2-yl]methanone] gave a pIC50 of 6.48.
`O=C(N1CC2(CC(n3cnc(C4(O)CC4)n3)C2)C1)N1CC2(CN(Cc3cnc(C(F)(F)F)s3)C2)C1` [Example 19] showed a pIC50 of 7.46.
`O=C(N1CC2(CC(Cc3nsc(C(F)(F)F)n3)C2)C1)N1CC2(CC(n3cnc(C(F)(F)F)n3)C2)C1` [Example 20, [6-[[5-(trifluoromethyl)-1,2,4-thiadiazol-3-yl]methyl]-2-azaspiro[3.3]heptan-2-yl]-[6-[3-(trifluoromethyl)-1,2,4-triazol-1-yl]-2-azaspiro[3.3]heptan-2-yl]methanone] gave a pIC50 of 9.07.
Compound `O=C(N1CC2(CC(Cc3nsc(C(F)(F)F)n3)C2)C1)N1CC2(CC(n3cnc(C4CC4)n3)C2)C1` [Example 21, [6-(3-cyclopropyl-1,2,4-triazol-1-yl)-2-azaspiro[3.3]heptan-2-yl]-[6-[[5-(trifluoromethyl)-1,2,4-thiadiazol-3-yl]methyl]-2-azaspiro[3.3]heptan-2-yl]methanone] has a pIC50 of 10.00.
`O=C(N1CC2(CC(Cc3nsc(C(F)(F)F)n3)C2)C1)N1CC2(CC(n3cnc(C4(O)CC4)n3)C2)C1` [Example 22, [6-[3-(1-hydroxycyclopropyl)-1,2,4-triazol-1-yl]-2-azaspiro[3.3]heptan-2-yl]-[6-[[5-(trifluoromethyl)-1,2,4-thiadiazol-3-yl]methyl]-2-azaspiro[3.3]heptan-2-yl]methanone] was tested, and the pIC50 was 8.59.
Work on `O=C(N1CC2(CC(Cc3nc(C(F)(F)F)co3)C2)C1)N1CC2(CC(n3cnc(C4(O)CC4)n3)C2)C1` [Example 23, [6-[3-(1-hydroxycyclopropyl)-1,2,4-triazol-1-yl]-2-azaspiro[3.3]heptan-2-yl]-[6-[[4-(trifluoromethyl)oxazol-2-yl]methyl]-2-azaspiro[3.3]heptan-2-yl]methanone] yielded a pIC50 of 7.61.
`Cn1nc(C(F)(F)F)cc1CN1CCC2(CC1)CN(C(=O)N1CC3(CC(c4cc(C5CC5)n[nH]4)C3)C1)C2` [Example 24] was tested, and the pIC50 was 8.19.
`Cn1nc(C(F)(F)F)cc1CN1CCC2(CC1)CN(C(=O)N1CC3(CC(n4cnc(C(F)(F)F)n4)C3)C1)C2` [Example 25] gave a pIC50 of 7.60.
`Cn1nc(C(F)(F)F)cc1CN1CCC2(CC1)CN(C(=O)N1CC3(CC(n4cnc(C5CC5)n4)C3)C1)C2` [Example 26, [6-(3-cyclopropyl-1,2,4-triazol-1-yl)-2-azaspiro[3.3]heptan-2-yl]-[7-[[2-methyl-5-(trifluoromethyl)pyrazol-3-yl]methyl]-2,7-diazaspiro[3.5]nonan-2-yl]methanone] showed a pIC50 of 8.47.
`Cn1nc(C(F)(F)F)cc1CN1CCC2(CC1)CN(C(=O)N1CC3(CC(n4cnc(C5(O)CC5)n4)C3)C1)C2` [Example 27, [6-[3-(1-hydroxycyclopropyl)-1,2,4-triazol-1-yl]-2-azaspiro[3.3]heptan-2-yl]-[7-[[2-methyl-5-(trifluoromethyl)pyrazol-3-yl]methyl]-2,7-diazaspiro[3.5]nonan-2-yl]methanone] was tested, and the pIC50 was 6.91.
`O=C(N1CC2(CCN(Cc3cc(C(F)(F)F)[nH]n3)CC2)C1)N1CC2(CC(n3cnc(C(F)(F)F)n3)C2)C1` [Example 28] gave a pIC50 of 7.69.
`O=C(N1CC2(CCN(Cc3cc(C(F)(F)F)[nH]n3)CC2)C1)N1CC2(CC(n3cnc(C4CC4)n3)C2)C1` [Example 29, [6-(3-cyclopropyl-1,2,4-triazol-1-yl)-2-azaspiro[3.3]heptan-2-yl]-[7-[[5-(trifluoromethyl)-1H-pyrazol-3-yl]methyl]-2,7-diazaspiro[3.5]nonan-2-yl]methanone] showed a pIC50 of 8.38.
For `O=C(N1CC2(CCN(Cc3ncc(C(F)F)s3)CC2)C1)N1CC2(CC(c3cc(C4CC4)n[nH]3)C2)C1` [Example 30, [6-(3-cyclopropyl-1H-pyrazol-5-yl)-2-azaspiro[3.3]heptan-2-yl]-[7-[[5-(difluoromethyl)thiazol-2-yl]methyl]-2,7-diazaspiro[3.5]nonan-2-yl]methanone], the pIC50 was 8.44.

From US20260374756A1, “HETEROCYCLIC COMPOUNDS AS INHIBITORS OF MONOACYLGLYCEROL LIPASE (MAGL)” (Hoffmann-La Roche Inc., priority 2022, published 2026)
